Three molecules from patent US20170182108A1, “FERMENTED FOOD EXTRACT COMPOSITION” (priority 2014, published 2017) can be followed below.

SMILES strings stand for the structures. Read-outs that look alike come from different tables or passages of the source.

Test [1] has as its system thoracic aorta specimens of SHRs. Put plainly: measurement test of isometric tension in blood vessels (vasodilatory effect on phenylephrine-constricted ring specimens). As to conditions: for concentration from which a vasodilatory effect / dilation reaction is shown: cumulative addition. Details: dilation rate: dose or concentration left out as unconfirmed. In kind it is cell-based, rat (spontaneously hypertensive rat, SHR). The method, then: In the examination of each condition, concentration of the active ingredient was checked by identifying fractions showing vasodilatory effect by measurement test of isometric tension in blood vessels at each purification stage.
Thoracic aorta used for the test was removed from a male 10-12 week-old SHR; after removal of the connective tissue, it was cut into a length 2-3 mm to produce ring specimens. The resulting ring specimens were attached to an organ bus filled with Krebs solution of 37° C. (119 mM NaCl/4.7 mM KCl/1.1 mM KH2PO4/1.2 mM MgSO4/25 mM NaHCO3, pH 7.4) in which a mixed gas of 95% O2-5% CO2 was aerated, then a static tension of 1.5 g was applied (UFER UC-05A; Iwashiya Kishimoto Ika Sangyo K.K., Kyoto). Vascular tension was measured by UFER UM-203 transducer (Iwashiya Kishimoto Ika Sangyo). After 60-min incubation from the attachment, the ring specimens were constricted using a vasoconstrictor phenylephrine (final concentration of 0.30 μM). To the constricted ring specimens, commercially available acetylcholine, that is an endothelium-dependent vasodilator (final concentration of 100 μM) was added, and presence/absence of vascular endothelium was determined by presence/absence of vasodilatory effect. Then, the ring specimens were washed with Krebs solution to remove the drugs, incubated at static tension for 10 min, and again constricted by 0.30 μM phenylephrine.

Test [2] concerns systolic blood pressure of SHRs. Put plainly: single oral administration test to SHRs (blood pressure by tail cuff method). In kind it is in vivo, rat (spontaneously hypertensive rat. As to conditions: single oral 10^−11 mol/kg, SHR; for maximum decrease in systolic blood pressure: 9 h after administration, compared to the control group; for blood pressure effect compared to the control group: measured 3, 6, 9 and 24 h after administration. The method, then:
Animal experiments were carried out according to the animal experiment guidelines of Shinshu University. In the present study, spontaneously hypertensive rats of 10-13 week-old males (SHR/NCrlCrlj, Charles River Laboratories Japan, Yokohama) were used as an experimental animal. SHRs were bred in individual cages in a breeding room controlled with a light-dark cycle of […] and a room temperature of 22-23° C. In acclimation breeding, rat standard diet (MF; Charles River Laboratories) and tap water were fed ad libitum. SHRs are a rat strain that has been isolated in 1963 by selection mating from Wistar-Kyoto rats that had been bred in the animal experimentation center of Kyoto University. They are referred to as spontaneously hypertensive rats or essential hypertensive rats; while systolic blood pressure of the separation maternal. Wistar-Kyoto rats is approximately 135 mmHg for mature males and approximately 132 mmHg for mature females, blood pressure of almost all the SHRs becomes 150 mmHg or higher at 2 months from the birth, and reaches almost a maximum value at 4-5 months, with many of the values showing 180-210 mmHg. In general, as a model animal of essential hypertension that s said to be account for approximately 90% of the hypertension in humans, SHRs have been used to elucidate pharmacological effects and food functions, and a mechanism of blood pressure rise.
Single oral administration test was carried out using male 12-week-old SHRs with a body weight of 280-320 g. After acclimation breeding for 1 week, the rats were fasted for 12 h, and a sample was given to the rats by a single oral administration. The sample to be administered was dissolved in pure water, and given by a single oral administration with a dose of 10^−11 mol/kg (b.w.) to each 6 SHRs. Sample aqueous solutions of purified acetylcholine, propionylcholine and butyrylcholine were acidic, with a pH of 4.7, 4,3, and 4.4, respectively. To the control group, pure water was administered. Changes in the systolic blood pressure and diastolic blood pressure were measured using non-invasive blood pressure measuring instrument Softron BP-98A (Softron Co., Ltd., Tokyo) by tail cuff method, before administration and at 3, 6, 9, and 24 h after administration. Results of the single oral administration test of purified acetylcholine, propionylcholine and butyrylcholine were shown in FIG. 7.

As to `CC(=O)OCC[N+](C)(C)C` [acetylcholine], the EC50 in test [1] (Rattus norvegicus, hydrochloride salt, summary sentence b69, read-out: EC50 of vasodilatory effect (unit inferred)) was determined as 27.2 nM; in test [1] (Rattus norvegicus, hydrochloride salts, cumulative addition 10^−9 to 10^−4 M, read-out: EC50 of vasodilatory effect) it was 27.2 nM. This molecule also showed a maximum dilation rate in test [1] (at 10^−6 M) of 89.9%. This molecule also registered a dilation rate in test [1] (at the addition) of 1.52%. Besides, in test [1] (hydrochloride salts), the “concentration from which a vasodilatory effect / dilation reaction is shown” value is on record as 10^−9 M. Besides, in test [2], the “maximum decrease in systolic blood pressure” value came to 24.7 mmHg.

`CCC(=O)OCC[N+](C)(C)C` [propionylcholine] showed a maximum dilation rate in test [1] (at 10^−4 M) of 95.2%. Moreover, the “concentration from which a vasodilatory effect / dilation reaction is shown” value in test [1] (hydrochloride salts) is 10^−7 M. The half-maximal effective concentration (EC50) in test [1] (hydrochloride salts, cumulative addition 10^−9 to 10^−4 M, read-out: EC50 of vasodilatory effect) is 2270 nM. In test [2], the “maximum decrease in systolic blood pressure” value was 8.05 mmHg and the “blood pressure effect compared to the control group” value is recorded as “significant vasodilatory effect”.

Molecule `CCCC(=O)OCC[N+](C)(C)C` [butyrylcholine] came in with a dilation in test [1] (at the addition of 10^−4 M) of 7.14%. In addition, the “blood pressure effect compared to the control group” value in test [2] is “no significant decrease in blood pressure”.

The EC50 is the concentration that produces a half-maximal response.
